# Measured values reported in PMC7815716, “Mechanistic basis of breast cancer resistance protein inhibition by new indeno[1,2-b]indoles” (Scientific Reports, 2021).
# Where “and” joins values, the source holds several entries; their conditions need not be identical. Identical values can stand only once. Like-named read-outs stand apart in the source and are kept apart here.
# Experiments:
# [1] = target: T1, ABCG2 (Homo sapiens, UniProt Q9UNQ0); experiment: Inhibition of ABCG2-mediated mitoxantrone efflux (flow cytometry); format: cell-based; design: expressed in transfected cells; host or cells: HEK293; conditions: for inhibition at 30 min: human, probe mitoxantrone (10 µM), from IC50 fitted curves, HEK293-ABCG2, mitoxantrone, 100% = Ko143 0.5 µM, read-out: IMAX (%) ± SD, maximal inhibition percentage; for TR, therapeutic ratio (IG50/IC50): ratio between IG50 and IC50 values
# T1 sequence (Q9UNQ0 1-655): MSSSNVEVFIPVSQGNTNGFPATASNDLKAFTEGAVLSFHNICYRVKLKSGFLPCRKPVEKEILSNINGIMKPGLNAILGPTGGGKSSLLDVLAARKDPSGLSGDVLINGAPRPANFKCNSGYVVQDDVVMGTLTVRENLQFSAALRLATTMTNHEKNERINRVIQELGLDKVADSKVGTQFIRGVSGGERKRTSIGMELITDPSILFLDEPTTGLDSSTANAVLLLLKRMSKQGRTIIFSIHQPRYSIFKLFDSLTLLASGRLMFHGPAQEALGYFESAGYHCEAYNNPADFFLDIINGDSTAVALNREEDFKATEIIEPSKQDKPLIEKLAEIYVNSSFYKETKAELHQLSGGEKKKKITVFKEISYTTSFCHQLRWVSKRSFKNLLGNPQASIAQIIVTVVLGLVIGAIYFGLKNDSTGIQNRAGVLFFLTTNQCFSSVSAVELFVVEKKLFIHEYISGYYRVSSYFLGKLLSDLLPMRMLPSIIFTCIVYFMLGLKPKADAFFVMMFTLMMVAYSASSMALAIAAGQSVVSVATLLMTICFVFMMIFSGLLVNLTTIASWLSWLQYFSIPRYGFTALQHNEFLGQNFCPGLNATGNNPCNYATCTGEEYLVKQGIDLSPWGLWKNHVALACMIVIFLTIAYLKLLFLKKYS
# Description: ABCG2 inhibition assays were carried out on HEK293 WT and HEK293-ABCG2 cells. Cells were seeded at the density of 1 × 10^5 cells/well in 24 well culture plates and incubated for 48 h at 37 °C under 5% CO2. Cells were treated with compounds and 10 μM of mitoxantrone for 30 min at 37 °C and 5% CO2. After incubation the cells were washed with PBS, trypsinized and resuspended in ice cold PBS. The intracellular drug fluorescence was monitored with a FACS Calibur cytometer (Becton Dickinson) using the FL4 channel, with at least 10,000 events collected. The maximal fluorescence (taken as 100%) was determined with the difference between the mean fluorescence of HEK-ABCG2 cells incubated with 0.5 μM Ko143 (ABCG2 reference inhibitor) or by using the HEK293 WT cell line as a control and cells without inhibitor (mitoxantrone alone). The percent of inhibition was determined as previously described. For bimodulation assays the cells were concomitantly treated with 10 μM of one or two combined inhibitors under similar conditions as described previously. For washing assays, cells were treated with 10 μM concentrations of compounds for 30 min. Then, the medium with the inhibitor was removed and the cells were washed with PBS and incubated only with culture medium for different periods of time (0.5 and 3 h). After incubation, cells were exposed to 5 µM mitoxantrone for 30 min, and then analyzed by flow cytometry. The percentage of transport inhibition was calculated by the following equation: %Inhibition=C-S/I-S×100 where “C” corresponds to the intracellular fluorescence of cells in the presence of the tested compounds and substrate (mitoxantrone to ABCG2, Rhodamine 123 to ABCB1 and calcein to ABCC1), “S” corresponds to the intracellular fluorescence of cells in the presence of substrate alone, and “I” corresponds to the intracellular fluorescence of cells in the presence of the substrate and reference inhibitor (Ko143 to ABCG2, GF120918 to ABCB1 and verapamil to ABCC1).
# [2] = Intrinsic cytotoxicity of compounds, MTT assay; format: cell-based, human; conditions: human, HEK293 WT and HEK293-ABCG2 cells, MTT, read-out: IG50 (µM) ± SD, cytotoxicity (half-maximal cell viability)
# Description: (§1) Cell viability was evaluated with a 3-(4,5-dimethylthiazol-2-yl)-2,5-diphenyltetrazolium bromide (MTT) colorimetric assay. HEK293 WT and HEK293-ABCG2 cells were seeded into 96-well culture plates at a 1.5 × 10^4 cells/well density. After overnight incubation, the cells were treated with various concentrations of compounds (0–100 µM) for 72 h at 37 °C under 5% CO2. […] Sensitization experiments were also carried out on H460 and H460MX20 cells. For these experiments, H460 and H460MX20 cells were seeded into 96-well culture plates at 1.0 × 10^4 cells/well density. […] After the treatment, the culture medium was removed and 100 μL of a 0.5 mg.mL^−1 MTT solution was added. Cells were then incubated for 4 h at 37 °C under 5% CO2. The formazan crystals were dissolved with a solution of DMSO/ethanol (1:1) and the absorbance was measured at 570 nm using a Multiscan FC microplate reader (Thermo Scientific). The results were expressed as percentage of viable cells versus control cells (0.1% DMSO, v/v) taken as 100%.
# [3] = tested on: ABCG2; design: method as in PMID 15930306; conditions: cited from earlier work
# [4] = tested on: ABCG2; conditions: cited from earlier work
# [5] = tested on: HEK293 WT cells; experiment: SN-38 cytotoxicity in control cells, MTT assay; format: cell-based, human
# Description: as §1
# [6] = target: T1, ABCG2; conditions: previously published data, cited from earlier work
# [7] = HEK293-ABCG2 cells, mitoxantrone 10 µM, 30 min, read-out: IC50 (µM) ± SD, inhibition of ABCG2-mediated mitoxantrone efflux
smiles,measurement,setting,value
"COc1ccccc1CCn1c2c(c3c1-c1ccccc1C3=O)C(=O)CC(C)C2 (centres unmarked) [5a, 5-(2-Methoxyphenethyl)-7-methyl-5,6,7,8-tetrahydroindeno[1,2-b]indole-9,10-dione]",melting point,,204 °C
same,IC50,[1]; [7],0.25 ± 0.01 µM
same,inhibition at 30 min,[1]; HEK293-ABCG2 cells,72.5 ± 3.72%
same,"TR, therapeutic ratio (IG50/IC50)",[1],> 393.60
"O=C1c2ccccc2-c2c1c1c(n2CCc2ccccc2)CCC(Cc2ccccc2)C1=O (centres unmarked) [5b, 8-Benzyl-5-phenethyl-5,6,7,8-hexahydroindeno[1,2-b]indole-9,10-dione]",IC50,[1]; [7],0.45 ± 0.1 µM
same,inhibition at 30 min,[1]; HEK293-ABCG2 cells,113 ± 3.67%
same,"TR, therapeutic ratio (IG50/IC50)",[1],28.10
"COc1ccc2[nH]cc(CCn3c4c(c5c3-c3ccccc3C5=O)C(=O)CCC4)c2c1 [5c, 5-(2-(5-Methoxy-1H-indol-3-yl)ethyl)-5,6,7,8-tetrahydroindeno[1,2-b]indole-9,10-dione]",melting point,,279 °C
same,IC50,[1]; [7],0.65 ± 0.03 µM
same,inhibition at 30 min,[1]; HEK293-ABCG2 cells,60 ± 4.04%
same,"TR, therapeutic ratio (IG50/IC50)",[1],56.41
"COc1cccc(CCn2c3c(c4c2-c2cc(O)ccc2C4=O)C(=O)CCC3)c1 [5d, 3-Hydroxy-5-(3-methoxyphenethyl)-5,6,7,8-tetrahydroindeno[1,2-b]indole-9,10-dione]",melting point,,222 °C
same,IC50,[1]; [7],2.71 ± 0.14 µM
same,inhibition at 30 min,[1]; HEK293-ABCG2 cells,68.5 ± 0.68%
same,"TR, therapeutic ratio (IG50/IC50)",[1],9.85
"CC1CC(=O)c2c3c(n(CCc4ccccc4)c2C1)-c1cccc(O)c1C3=O (centres unmarked) [5f, 1-Hydroxy-7-Methyl-5-phenethyl-5,6,7,8-tetrahydroindeno[1,2-b]indole-9,10-dione]",melting point,,246 °C
same,IC50,[1]; [7],0.18 ± 0.02 µM
same,inhibition at 30 min,[1]; HEK293-ABCG2 cells,48.4 ± 0.8%
same,"TR, therapeutic ratio (IG50/IC50)",[1],153.24
"CC1CC(=O)c2c3c(n(CCc4ccccc4)c2C1)-c1c(O)cccc1C3=O (centres unmarked) [5g, 4-Hydroxy-7-methyl-5-phenethyl-5,6,7,8-tetrahydroindeno[1,2-b]indole-9,10-dione]",melting point,,283 °C
same,IC50,[1]; [7],0.44 ± 0.03 µM
same,inhibition at 30 min,[1]; HEK293-ABCG2 cells,65.2 ± 0.94%
same,"TR, therapeutic ratio (IG50/IC50)",[1],58.79
"COc1ccccc1CCn1c2c(c3c1-c1cccc(O)c1C3=O)C(=O)CCC2 [5h, 1-Hydroxy-5-(2-methoxyphenethyl)-5,6,7,8-tetrahydroindeno[1,2-b]indole-9,10-dione]",melting point,,173 °C
same,IC50,[1]; [7],0.42 ± 0.07 µM
same,inhibition at 30 min,[1]; HEK293-ABCG2 cells,69.6 ± 1.14%
same,"TR, therapeutic ratio (IG50/IC50)",[1],57.21
"COc1ccccc1CCn1c2c(c3c1-c1cccc(O)c1C3=O)C(=O)CC(C)C2 (centres unmarked) [5i, 1-Hydroxy-7-methyl-5-(2-methoxyphenethyl)-5,6,7,8-tetrahydroindeno[1,2-b]indole-9,10-dione]",IC50 at 72 h,[2],20 µM
same,IC50,[1]; [7],0.07 ± 0.02 µM
same,inhibition at 30 min,[1]; HEK293-ABCG2 cells,62.83 ± 0.48%
same,"TR, therapeutic ratio (IG50/IC50)",[1],293.66
"COc1ccccc1CCn1c2c(c3c1-c1cccc(OCC=C(C)C)c1C3=O)C(=O)CCC2 [5j, 5-(2-Methoxyphenethyl)-1-(3-methylbut-2-enyloxy)-5,6,7,8-tetrahydroindeno[1,2-b]indole-9,10-dione]",melting point,,118 °C
same,IC50,[1]; [7],0.48 ± 0.08 µM
same,inhibition at 30 min,[1]; HEK293-ABCG2 cells,85.6 ± 2.59%
same,"TR, therapeutic ratio (IG50/IC50)",[1],32.86
"COc1ccccc1CCn1c2c(c3c1-c1c(OCC=C(C)C)cccc1C3=O)C(=O)CCC2 [5k, 5-(2-Methoxyphenethyl)-4-(3-methylbut-2-enyloxy)-5,6,7,8-hexahydroindeno[1,2-b]indole-9,10-dione]",IC50,[1]; [7],0.92 ± 0.1 µM
same,inhibition at 30 min,[1]; HEK293-ABCG2 cells,116 ± 2.36%
same,"TR, therapeutic ratio (IG50/IC50)",[1],22.85
"COc1ccccc1CCn1c2c(c3c1-c1cccc(OCC=C(C)C)c1C3=O)C(=O)CC(C)C2 (centres unmarked) [5l, 5-(2-Methoxyphenethyl)-7-methyl-1-((3-methylbut-2-enyl)oxy)-5,6,7,8-tetrahydroindeno[1,2-b]indole-9,10-dione]",IC50,[1]; [7],0.24 ± 0.03 µM
same,inhibition at 30 min,[1]; HEK293-ABCG2 cells,82.3 ± 3.44%
same,"TR, therapeutic ratio (IG50/IC50)",[1],59.72
"COc1ccccc1CCn1c2c(c3c1-c1c(OCC=C(C)C)cccc1C3=O)C(=O)CC(C)C2 (centres unmarked) [5m, 5-(2-Methoxyphenethyl)-7-methyl-4-((3-methylbut-2-enyl)oxy)-5,6,7,8-hexahydroindeno[1,2-b]indole-9,10-dione]",IC50,[1]; [7],0.19 ± 0.07 µM
same,inhibition at 30 min,[1]; HEK293-ABCG2 cells,87.4 ± 2.46%
same,"TR, therapeutic ratio (IG50/IC50)",[1],66.23
CC(C)=CCOc1cccc2c1-c1c(c3c(n1CCc1ccccc1)CC(C)CC3=O)C2=O (centres unmarked) [5n],IC50,[1]; [7],4.09 ± 0.56 µM
same,inhibition at 30 min,[1]; HEK293-ABCG2 cells,133 ± 3.35%
same,"TR, therapeutic ratio (IG50/IC50)",[1],5.26
CC(C)=CCc1c(O)cc2oc(-c3ccccc3)cc(=O)c2c1O [6-prenylchrysin],Maximal inhibition of ABCG2,[3],approximately 70%
"COc1cc2c(cc1OC)-c1c(c3c(O)cc(C)cc3n1CCc1ccccc1)C2=O [6e, 9-Hydroxy-2,3-dimethoxy-7-methyl-5-phenethylindeno[1,2-b]indol-10(5H)-one]",melting point,,198 °C
same,IC50,[1],0.2 ± 0.04 µM
same,inhibition at 30 min,[1]; HEK293-ABCG2 cells,66.8 ± 1.79%
same,"TR, therapeutic ratio (IG50/IC50)",[1],212.38
COc1ccc2c3c([nH]c2c1)[C@H](CC(C)C)N1C(=O)[C@H](CCC(=O)OC(C)(C)C)NC(=O)[C@@H]1C3 [Ko143],Effect on the ATPase activity of ABCG2,[4],inhibit the ATPase activity
CCc1c2c(nc3ccc(O)cc13)-c1cc3c(c(=O)n1C2)COC(=O)[C@]3(O)CC [SN-38],"FR, fold reversal",[5]; SN-38 alone (reference),1.00
same,IC50,"[5]; SN-38 alone, 72 h, read-out: IG50 (SN-38 nM ± SD)",8.24 nM and 7.53 nM and 10 nM and 7.58 nM
O=C1c2c(O)ccc(O)c2C(=O)c2c(NCCNCCO)ccc(NCCNCCO)c21 [mitoxantrone],Stimulation of the ATPase activity of ABCG2,[4],40%
CC1CC(=O)c2c3c(n(CCc4ccccc4)c2C1)-c1ccccc1C3=O (centres unmarked) [p4h],"TR, therapeutic ratio (IG50/IC50)",[6],> 435.00
COc1ccccc1CCn1c2c(c3c1-c1ccccc1C3=O)C(=O)CCC2 [p4j],"TR, therapeutic ratio (IG50/IC50)",[6],130.00
COc1cccc(CCn2c3c(c4c2-c2ccccc2C4=O)C(=O)CCC3)c1 [p4k],"TR, therapeutic ratio (IG50/IC50)",[6],41.00
Cc1cc(O)c2c3c(n(CCc4ccccc4)c2c1)-c1ccccc1C3=O [p5h],"TR, therapeutic ratio (IG50/IC50)",[6],360.00
same,IC50,"[6]; read-out: IC50 (µM) ± SD, inhibition of ABCG2-mediated mitoxantrone efflux",0.15 ± 0.01 µM
COc1cc2nc(N3CCN(C(=O)c4ccco4)CC3)nc(N)c2cc1OC [prazosin],Stimulation of the ATPase activity of ABCG2,[4],100%
